Laboratory results from patent US20240190831A1, “TRANSTHYRETIN STABILIZING COMPOUNDS” (Protego Biopharma, Inc., priority 2021, published 2024).
Structures can show the parent of a compound that is named as a salt.

Experiment: In vitro rat liver S9 stability assay (formation of tafamidis)
Assay type: in vitro ADME
Conditions: rat liver S9, 1 μM test compound, 37° C.
Procedure: A stability assay in liver S9 (rat or human) was used to evaluate the ability of a compound provided herein to convert to an active TTR stabilizer. The test compound was added to liver S9 and incubated at 37° C. in a water bath at a concentration of 1 μM. At each time point (0, 5, 10, 20, 30 and 60 min), stop solution (tolbutamide plus labetalol) was added to precipitate protein and mixed thoroughly. After centrifugation, an aliquot of supernatant was analyzed by LC-MS/MS. The percentage of formation of active agent was calculated at each time point.

| Compound | Formation of tafamidis at 60 min |
| --- | --- |
| CN(C)[C@H]1CC[C@@H](OC(=O)c2ccc3nc(-c4cc(Cl)cc(Cl)c4)oc3c2)C1 (relative stereo) [Compound 46, Cis-3-(dimethylamino)cyclopentyl 2-(3,5-dichlorophenyl)benzo-[d]oxazole-6-carboxylate—HCl salt] | A (A is <25%) |
| CN(C)[C@@H]1CC[C@@H](OC(=O)c2ccc3nc(-c4cc(Cl)cc(Cl)c4)oc3c2)C1 (relative stereo) [Compound 47, Trans-3-(dimethylamino)cyclopentyl 2-(3,5-dichlorophenyl)benzo-[d]oxazole-6-carboxylate—HCl salt] | A (A is <25%) |
| O=C(O[C@H]1CCN2CCC[C@H]12)c1ccc2nc(-c3cc(Cl)cc(Cl)c3)oc2c1 (relative stereo) [Compound 58, (cis)-hexahydro-1H-pyrrolizin-1-yl 2-(3,5-dichlorophenyl)benzo[d]oxazole-6-carboxylate] | A (A is <25%) |
| O=C(O[C@H]1CCN2CCC[C@@H]12)c1ccc2nc(-c3cc(Cl)cc(Cl)c3)oc2c1 (relative stereo) [Compound 59, (trans)-hexahydro-1H-pyrrolizin-1-yl 2-(3,5-dichlorophenyl)benzo[d]oxazole-6-carboxylate] | A (A is <25%) |
| CC(CO)OC(=O)c1ccc2nc(-c3cc(Cl)cc(Cl)c3)oc2c1 (single isomer, unassigned) [Compound 43, 1-hydroxypropan-2-yl 2-(3,5-dichlorophenyl) benzo[d]oxazole-6-carboxylate] | C (C is ≥50 to <75%) |
| CC(CO)OC(=O)c1ccc2nc(-c3cc(Cl)cc(Cl)c3)oc2c1 (single isomer, unassigned) [Compound 44, 1-hydroxypropan-2-yl 2-(3,5-dichlorophenyl) benzo[d]oxazole-6-carboxylate] | C (C is ≥50 to <75%) |
| O=C(O[C@H]1CCCN2CCC[C@H]12)c1ccc2nc(-c3cc(Cl)cc(Cl)c3)oc2c1 (single isomer, unassigned) [Compound 69, Octahydroindolizin-8-yl 2-(3,5-dichlorophenyl)benzo[d]oxazole-6-carboxylate] | A (A is <25%) |
| O=C(O[C@H]1CCCN2CCC[C@@H]12)c1ccc2nc(-c3cc(Cl)cc(Cl)c3)oc2c1 (single isomer, unassigned) [Compound 70, Octahydroindolizin-8-yl 2-(3,5-dichlorophenyl)benzo[d]oxazole-6-carboxylate] | A (A is <25%) |
| O=C(O[C@H]1CCCN2CCCC[C@H]12)c1ccc2nc(-c3cc(Cl)cc(Cl)c3)oc2c1 (single isomer, unassigned) [Compound 71, Octahydro-1H-quinolizin-1-yl 2-(3,5-dichlorophenyl)benzo[d]oxazole-6-carboxylate] | B (B is ≥25 to <50%) |
| O=C(O[C@H]1CCCN2CCCC[C@@H]12)c1ccc2nc(-c3cc(Cl)cc(Cl)c3)oc2c1 (single isomer, unassigned) [Compound 72, Octahydro-1H-quinolizin-1-yl 2-(3,5-dichlorophenyl)benzo[d]oxazole-6-carboxylate] | A (A is <25%) |
| CC(F)(F)CNC(=O)c1ccc2nc(-c3cc(Cl)cc(Cl)c3)oc2c1 [Compound 1, 2-(3,5-dichlorophenyl)-N-(2,2-difluoropropyl)benzo[d]oxazole-6-carboxamide] | A (A is <25%) |
| CC(NC(=O)c1ccc2nc(-c3cc(Cl)cc(Cl)c3)oc2c1)C(F)F (centres unmarked) [Compound 2, 2-(3,5-dichlorophenyl)-N-(1,1-difluoropropan-2-yl)benzo[d]oxazole-6-carboxamide] | A (A is <25%) |
| O=C(NCC(F)(F)C(F)(F)F)c1ccc2nc(-c3cc(Cl)cc(Cl)c3)oc2c1 [Compound 3, 2-(3,5-dichlorophenyl)-N-(2,2,3,3,3-pentafluoropropyl)benzo[d]oxazole-6-carboxamide] | A (A is <25%) |
| COCCNC(=O)c1ccc2nc(-c3cc(Cl)cc(Cl)c3)oc2c1 [Compound 6, 2-(3,5-dichlorophenyl)-N-(2-methoxyethyl)benzo[d]oxazole-6-carboxamide] | A (A is <25%) |
| CN(C)CCN(C)C(=O)c1ccc2nc(-c3cc(Cl)cc(Cl)c3)oc2c1 [Compound 8, 2-(3,5-dichlorophenyl)-N-(2-(dimethylamino)ethyl)-N-methylbenzo[d]oxazole-6-carboxamide] | A (A is <25%) |
| CNCCNC(=O)c1ccc2nc(-c3cc(Cl)cc(Cl)c3)oc2c1 [Compound 9, 2-(3,5-dichlorophenyl)-N-(2-(methylamino)ethyl)benzo[d]oxazole-6-carboxamide hydrochloride] | A (A is <25%) |

Continued, values first:

| Formation of tafamidis at 60 min | Compound |
| --- | --- |
| A (A is <25%) | O=C(N[C@@H]1CCC[C@@H]1O)c1ccc2nc(-c3cc(Cl)cc(Cl)c3)oc2c1 (relative stereo) [Compound 28, 2-(3,5-dichlorophenyl)-N-((cis)-2-hydroxycyclopentyl)benzo-[d]oxazole-6-carboxamide] |
| A (A is <25%) | O=C(N[C@@H]1CCC[C@H]1O)c1ccc2nc(-c3cc(Cl)cc(Cl)c3)oc2c1 (relative stereo) [Compound 29, 2-(3,5-dichlorophenyl)-N-((trans)-2-hydroxycyclopentyl)benzo-[d]oxazole-6-carboxamide] |
| A (A is <25%) | O=C(N[C@@H]1CC[C@H](O)C1)c1ccc2nc(-c3cc(Cl)cc(Cl)c3)oc2c1 (relative stereo) [Compound 30, 2-(3,5-dichlorophenyl)-N-((cis)-3-hydroxycyclopentyl)benzo-[d]oxazole-6-carboxamide] |
| A (A is <25%) | O=C(N[C@@H]1CC[C@@H](O)C1)c1ccc2nc(-c3cc(Cl)cc(Cl)c3)oc2c1 (relative stereo) [Compound 31, 2-(3,5-dichlorophenyl)-N-((trans)-3-hydroxycyclopentyl)benzo-[d]oxazole-6-carboxamide] |
| A (A is <25%) | O=C(N[C@@H]1CCCC[C@@H]1O)c1ccc2nc(-c3cc(Cl)cc(Cl)c3)oc2c1 (relative stereo) [Compound 32, 2-(3,5-dichlorophenyl)-N-((cis)-2-hydroxycyclohexyl)benzo-[d]oxazole-6-carboxamide] |
| A (A is <25%) | O=C(N[C@@H]1CCCC[C@H]1O)c1ccc2nc(-c3cc(Cl)cc(Cl)c3)oc2c1 (relative stereo) [Compound 33, 2-(3,5-dichlorophenyl)-N-((trans)-2-hydroxycyclohexyl)benzo-[d]oxazole-6-carboxamide] |
| A (A is <25%) | NC(=O)c1ccc2nc(-c3cc(Cl)cc(Cl)c3)oc2c1 [Compound 4, 2-(3,5-dichlorophenyl)benzo[d]oxazole-6-carboxamide] |
| A (A is <25%) | N#CCNC(=O)c1ccc2nc(-c3cc(Cl)cc(Cl)c3)oc2c1 [Compound 5, N-(cyanomethyl)-2-(3,5-dichlorophenyl)benzo[d]oxazole-6-carboxamide] |
| A (A is <25%) | CC(CO)NC(=O)c1ccc2nc(-c3cc(Cl)cc(Cl)c3)oc2c1 (centres unmarked) [Compound 10, 2-(3,5-dichlorophenyl)-N-(1-hydroxypropan-2-yl)benzo[d]oxazole-6-carboxamide] |
| A (A is <25%) | CC(O)CNC(=O)c1ccc2nc(-c3cc(Cl)cc(Cl)c3)oc2c1 (centres unmarked) [Compound 11, 2-(3,5-dichlorophenyl)-N-(2-hydroxypropyl)benzo[d]oxazole-6-carboxamide] |
| A (A is <25%) | O=C(NC1CC1(F)F)c1ccc2nc(-c3cc(Cl)cc(Cl)c3)oc2c1 (centres unmarked) [Compound 12, 2-(3,5-dichlorophenyl)-N-(2,2-difluorocyclopropyl)benzo[d]-oxazole-6-carboxamide] |
| A (A is <25%) | O=C(NC1CCCCC1(F)F)c1ccc2nc(-c3cc(Cl)cc(Cl)c3)oc2c1 (centres unmarked) [Compound 13, 2-(3,5-dichlorophenyl)-N-(2,2-difluorocyclohexyl)benzo[d]oxazole-6-carboxamide] |
| A (A is <25%) | O=C(NC1CCCC(F)(F)C1)c1ccc2nc(-c3cc(Cl)cc(Cl)c3)oc2c1 (centres unmarked) [Compound 14, 2-(3,5-dichlorophenyl)-N-(3,3-difluorocyclohexyl)benzo[d]oxazole-6-carboxamide] |
| A (A is <25%) | O=C(NC1CCC(F)(F)CC1)c1ccc2nc(-c3cc(Cl)cc(Cl)c3)oc2c1 [Compound 15, 2-(3,5-dichlorophenyl)-N-(4,4-difluorocyclohexyl)benzo[d]oxazole-6-carboxamide] |
| A (A is <25%) | O=C(NC1COC1)c1ccc2nc(-c3cc(Cl)cc(Cl)c3)oc2c1 [Compound 16, 2-(3,5-dichlorophenyl)-N-(oxetan-3-yl)benzo[d]oxazole-6-carboxamide] |
| A (A is <25%) | O=C(NC1CCOC1)c1ccc2nc(-c3cc(Cl)cc(Cl)c3)oc2c1 (centres unmarked) [Compound 17, 2-(3,5-dichlorophenyl)-N-(tetrahydrofuran-3-yl)benzo[d]oxazole-6-carboxamide] |
| A (A is <25%) | O=C(NC1CCC1)c1ccc2nc(-c3cc(Cl)cc(Cl)c3)oc2c1 [Compound 18, N-cyclobutyl-2-(3,5-dichlorophenyl)benzo[d]oxazole-6-carboxamide] |
| A (A is <25%) | O=C(NC1CCCC1)c1ccc2nc(-c3cc(Cl)cc(Cl)c3)oc2c1 [Compound 19, N-cyclopentyl-2-(3,5-dichlorophenyl)benzo[d]oxazole-6-carboxamide] |
| A (A is <25%) | O=C(NC1CC1)c1ccc2nc(-c3cc(Cl)cc(Cl)c3)oc2c1 [Compound 20, N-cyclopropyl-2-(3,5-dichlorophenyl)benzo[d]oxazole-6-carboxamide] |
